Patent US11433048B2, “CXCR4 receptor-binding compounds useful for increasing interferon level” (CENTRE NATIONAL de la RECHERCHE SCIENTIFIQUE, priority 2016, dated 2022)
Where a name gives a salt, the structure may show the parent alone. Read-outs that look alike come from different tables or passages of the source.

Assays:
HIV-activated pDC [1] = conditions: ELISA, AMD3100 20 μM pre-treatment, then CB, HIV overnight
HIV-activated pDC [2] = type: cell-based, human
[3] = AMD3100 20 μM pre-incubation, histamine or CB 10 μM, HIV-X4 overnight, normalized to RPL13A
[4] = AMD3100 alone, HIV-stimulated pDC
[5] = AMD-3100 20 μM, then CB 10 μM, HIV overnight, normalized to RPL13A

c1cc(CN2CCCNCCNCCCNCC2)ccc1CN1CCCNCCNCCCNCC1 [AMD3100, plerixafor]
IFN-a production inhibited by histamine or CB in HIV-activated pDC (FIG. 2) (HIV-activated pDC [1]): could restore | IFN-a mRNA expression inhibited by histamine or CB in HIV-activated pDC (FIG. 1) (HIV-activated pDC [2]; [3]): could restore | IFN-β mRNA expression inhibited by histamine or CB in HIV-activated pDC (FIG. 1) (HIV-activated pDC [2]; [3]): could restore | TRAIL mRNA expression inhibited by histamine or CB in HIV-activated pDC (FIG. 1) (HIV-activated pDC [2]; [3]): could restore | biological activities of histamine and CB on HIV activated-pDC (HIV-activated pDC [2]; AMD3100 (20 μM) 1 hour, then histamine or CB (10 μM) 1 hour, HIV-1 overnight): drastically abolished | TRAIL expression by HIV-activated pDC (HIV-activated pDC [2]; [4]): did not block | type I IFN expression by HIV-activated pDC (HIV-activated pDC [2]; [4]): did not block | IFN-stimulated gene 56 (ISG56) mRNA expression in HIV-activated pDC (restoration, FIG. 3A) (HIV-activated pDC [2]; [5]): confirmed | IFN-γ mRNA expression in HIV-activated pDC (restoration, FIGS. 3A-3C) (HIV-activated pDC [2]; [5]): confirmed | IL-6 mRNA expression in HIV-activated pDC (restoration, FIG. 3C) (HIV-activated pDC [2]; [5]): confirmed

NC(=NCc1ccc(Cl)cc1)SCCCc1cnc[nH]1 [CB, clobenpropit dihydrobromide]
production of IFN-I by HIV-stimulated pDC (HIV-activated pDC [2]; amine-type compounds, 10 μM): inhibit

Cl.Cl.NCCc1c[nH]cn1 [histamine, Histamine dihydrochloride]
production of IFN-I by HIV-stimulated pDC (HIV-activated pDC [2]): inhibit
